# According to KR20150001353A, “Fms 키나아제 저해 활성을 갖는 피리미딘 유도체” (한미약품 주식회사, priority 2013, dated 2015):
# Tests used:
# [1] = target: T1, recombinant human FMS kinase (재조합 인간 FMS 키나아제) (Homo sapiens, UniProt P07333); assay: FMS kinase inhibitory activity evaluation (Test Example 1; FRET, Z'-Lyte kinase assay-Tyr 1 peptide kit); assay type: biochemical; conditions: 0.3 µg/mL FMS, 150 μM ATP, room temperature, 1 h
# T1 construct: purchased Invitrogen pv3249
# [2] = test system: M-NFS-60 cell line (M-NFS-60 세포주); assay: M-NFS-60 cell line evaluation (Test Example 2; MTT, CellTiter 96 Assay); assay type: cell-based; conditions: recombinant M-CSF 20 ng/mL, 5% FBS, compound 10 μM to 0.1 nM, 590 nm
# T1 sequence (P07333 20-972): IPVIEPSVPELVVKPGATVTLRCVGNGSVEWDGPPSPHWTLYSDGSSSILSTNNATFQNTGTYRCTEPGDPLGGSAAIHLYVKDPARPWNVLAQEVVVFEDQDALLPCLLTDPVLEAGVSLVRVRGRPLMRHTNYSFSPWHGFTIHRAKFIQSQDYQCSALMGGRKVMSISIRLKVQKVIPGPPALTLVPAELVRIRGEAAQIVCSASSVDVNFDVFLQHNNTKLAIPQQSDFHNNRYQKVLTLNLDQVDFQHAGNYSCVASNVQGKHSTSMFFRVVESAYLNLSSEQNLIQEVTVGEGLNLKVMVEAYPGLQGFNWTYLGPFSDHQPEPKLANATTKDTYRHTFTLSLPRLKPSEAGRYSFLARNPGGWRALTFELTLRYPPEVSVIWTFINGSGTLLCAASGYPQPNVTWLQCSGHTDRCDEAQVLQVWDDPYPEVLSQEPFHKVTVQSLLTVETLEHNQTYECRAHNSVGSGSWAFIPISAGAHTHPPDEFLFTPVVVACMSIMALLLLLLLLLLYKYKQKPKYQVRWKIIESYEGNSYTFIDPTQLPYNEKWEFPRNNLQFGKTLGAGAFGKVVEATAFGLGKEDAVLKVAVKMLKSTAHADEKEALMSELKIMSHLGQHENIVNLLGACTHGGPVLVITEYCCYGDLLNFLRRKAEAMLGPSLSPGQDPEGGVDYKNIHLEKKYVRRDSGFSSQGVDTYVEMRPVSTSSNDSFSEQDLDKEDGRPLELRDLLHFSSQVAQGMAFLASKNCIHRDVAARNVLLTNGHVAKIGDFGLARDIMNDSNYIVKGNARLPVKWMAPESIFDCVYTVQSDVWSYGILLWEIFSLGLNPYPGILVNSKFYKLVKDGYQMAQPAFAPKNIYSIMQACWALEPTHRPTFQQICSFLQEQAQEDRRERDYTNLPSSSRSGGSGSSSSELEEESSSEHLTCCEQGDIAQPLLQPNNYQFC
IC50 [1],Compound,IC50 [2]
65 nM,"COc1ccc(CNc2cc(N(C)C(=O)Nc3cccc4c3c(C)nn4Cc3cccc(F)n3)ncn2)c(OC)c1 [실시예 9, 1-(6-(2,4-디메톡시벤질아미노)피리미딘-4-일)-3-(1-((6-플루오로피리딘-2-일)메틸)-3-메틸-1H-인다졸-4-일)-1-메틸우레아]",
14 nM,"COc1cccc(Cn2nc(C)c3c(NC(=O)N(C)c4cc(N)ncn4)cccc32)c1 [실시예 18, 1-(6-아미노피리미딘-4-일)-3-(1-(3-메톡시벤질)-3-메틸-1H-인다졸-4-일)-1-메틸우레아]",201 nM
